The source of these data is patent publication US6538152B1, “Phenoxyacetic acid derivatives and medicinal compositions containing the same” (Kissei Pharmaceutical Co., Ltd., priority 1998, dated 2003).

For series [1], the target named is T1, β2-adrenoceptor (Rattus norvegicus, UniProt P10608).
T1 construct: Uteri of pregnant SD rats (pregnancy day 21) were isolated; from tissue; host or cells: uterus (myometrium strips) of pregnant SD rats, day 21
Briefly: Experiment for measuring β2-adrenoceptor stimulating effects (inhibition of spontaneous contraction of isolated pregnant rat uterus, Magnus method). The format is cell-based. The conditions noted are these: isolated uteri of pregnant SD rats (pregnancy day 21), sum of contractions during 5 minutes. How it is done: Also, uteri of pregnant rats were isolated and preparations were made. The experiment was conducted according to the Magnus method. The sum of uterine contractions during 5 minutes before addition of a test compound was expressed as 100%. The test compound was added cumulatively.
The Experiment for Measuring β2-adrenoceptor Stimulating Effects
Uteri of pregnant SD rats (pregnancy day 21) were isolated and longitudinal strips of approximately 15 mm in length and approximately 5 mm in width free from the basal plate were prepared. The experiment was conducted according to the Magnus method. The preparations with a tension of 0.5 g were exposed to Locke-Ringer solution maintained at 37° C. and gassed with a mixture of 95% oxygen and 5% carbon dioxide. Spontaneous contractions of myometrium were isometrically measured with a force-displacement transducer and recorded. A test compound was cumulatively added to the Magnus bath every 5 minutes.

Series [2] addresses T2, β1-adrenoceptor (Rattus norvegicus, UniProt P18090).
T2 construct: Atria of male SD rats (250 to 400 g in body weight) were isolated; from tissue; host or cells: atria of male SD rats
The series is described as follows: Experiment for measuring β1-adrenoceptor stimulating effects (heart rate increase in isolated rat atria, Magnus method). The format is cell-based. Conditions: isolated atria of male SD rats, 100% = increase after 10^−8M isoproterenol. How it is done: Namely, the experiment was conducted using atria of rats according to the Magnus method. The increment of heart rate after addition of 10^−8M isoproterenol was expressed as 100%. A test compound was added cumulatively.
The Experiment for Measuring β1-adrenoceptor Stimulating Effects
Atria of male SD rats (250 to 400 g in body weight) were isolated and the experiment was conducted according to the Magnus method. The preparations with a tension of 0.5 g were exposed to Krebs-Henseleit solution maintained at 37° C. and gassed with a mixture of 95% oxygen and 5% carbon dioxide. The cardiac contractility was isometrically measured with a force-displacement transducer, and heart rate was recorded via a tachometer. A test compound was added cumulatively. Increase of heart rate per minute after addition of 10^−8M isoproterenol was expressed as 100%.

Series [3] relates to male ICR rats. Briefly: Acute toxicity test. The format is in vivo, rat. The conditions noted are these: male ICR rats of 4 weeks age, oral, 2 g/kg, during 24 hours after the administration, hydrochloride. How it is done:
Furthermore, the compounds represented by the above general formula (I) of the present invention are very safe.
To male ICR rats of 4 weeks age was administered orally ethyl 2-[2-chloro-4-[2-[[(1S,2R)-2-hydroxy-2-(4-hydroxyphenyl)1-methylethyl]amino]ethyl]phenoxy]acetate hydrochloride at a does of 2 g/kg.

Series [4] addresses β3-adrenoceptor (Mustela putorius furo, UniProt M3YEU4). The series is described as follows: Experiment for measuring β3-adrenoceptor stimulating effects (relaxation of isolated ferret urinary bladder smooth muscle, Magnus method). The format is cell-based. Conditions: read-out: EC50 value (concentration required to produce 50% of the relaxation of urinary bladder smooth muscle); isolated male ferret urinary bladder strips; 0% = maximal relaxation by 10^−5M forskolin. How it is done: Namely, urinary bladders of ferrets were isolated and preparations were made. The experiment was conducted according to the Magnus method. The […] tension without addition of a test compound is expressed as 100%, and the tension of maximal relaxation after addition of 10^−5M forskolin was expressed as 0%. The test compound was added cumulatively.
The Experiment for Measuring β3-adrenoceptor Stimulating Effects
Urinary bladders of male ferrets (1100 to 1400 g in body weight) were isolated and urinary bladder smooth muscle strips of approximately 10 mm in length and approximately 2 mm in width were prepared. The experiment was conducted according to the Magnus method. The preparations with a tension of 1 g were exposed to Krebs-Henseleit solution maintained at 37° C. and gassed with a mixture of 95% oxygen and 5% carbon dioxide. Basal tensions of urinary bladder were isometrically measured with a force-displacement transducer and recorded. A test compound was cumulatively added to the Magnus bath every about 5 minutes. Tension of urinary bladder smooth muscle before addition of the test compound was expressed as 100% and tension of maximal relaxation induced by 10^−5M of forskolin was expressed as 0%.

Where a name gives a salt, the structure may show the parent alone. Read-outs that look alike come from different tables or passages of the source. Where only a bound is given, the exact number is not on record here.

T1 sequence (P10608 whole entry): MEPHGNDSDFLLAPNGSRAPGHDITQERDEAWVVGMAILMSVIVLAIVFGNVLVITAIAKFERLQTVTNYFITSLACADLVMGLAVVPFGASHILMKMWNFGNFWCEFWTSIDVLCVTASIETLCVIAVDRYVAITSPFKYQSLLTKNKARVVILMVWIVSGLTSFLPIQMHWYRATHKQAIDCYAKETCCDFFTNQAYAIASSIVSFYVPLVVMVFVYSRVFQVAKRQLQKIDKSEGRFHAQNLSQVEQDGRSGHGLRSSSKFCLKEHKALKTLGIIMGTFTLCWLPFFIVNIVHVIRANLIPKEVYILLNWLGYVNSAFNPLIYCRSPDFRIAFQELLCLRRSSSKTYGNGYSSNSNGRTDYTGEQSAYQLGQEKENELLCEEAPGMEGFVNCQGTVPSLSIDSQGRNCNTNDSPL
T2 sequence (P18090 whole entry): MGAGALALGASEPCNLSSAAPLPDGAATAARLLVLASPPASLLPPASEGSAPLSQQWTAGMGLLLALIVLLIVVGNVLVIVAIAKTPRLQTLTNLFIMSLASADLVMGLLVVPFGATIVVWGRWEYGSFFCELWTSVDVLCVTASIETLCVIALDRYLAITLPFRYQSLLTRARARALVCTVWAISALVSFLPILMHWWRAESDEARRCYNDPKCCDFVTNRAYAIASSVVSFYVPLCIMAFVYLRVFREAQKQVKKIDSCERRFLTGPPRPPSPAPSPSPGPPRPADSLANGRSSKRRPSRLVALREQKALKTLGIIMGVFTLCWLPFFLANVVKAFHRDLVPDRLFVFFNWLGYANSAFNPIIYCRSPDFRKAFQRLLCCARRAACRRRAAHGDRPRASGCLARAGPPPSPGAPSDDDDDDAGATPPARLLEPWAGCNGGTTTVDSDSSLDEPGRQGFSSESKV
Sequence of β3-adrenoceptor (M3YEU4 1-435): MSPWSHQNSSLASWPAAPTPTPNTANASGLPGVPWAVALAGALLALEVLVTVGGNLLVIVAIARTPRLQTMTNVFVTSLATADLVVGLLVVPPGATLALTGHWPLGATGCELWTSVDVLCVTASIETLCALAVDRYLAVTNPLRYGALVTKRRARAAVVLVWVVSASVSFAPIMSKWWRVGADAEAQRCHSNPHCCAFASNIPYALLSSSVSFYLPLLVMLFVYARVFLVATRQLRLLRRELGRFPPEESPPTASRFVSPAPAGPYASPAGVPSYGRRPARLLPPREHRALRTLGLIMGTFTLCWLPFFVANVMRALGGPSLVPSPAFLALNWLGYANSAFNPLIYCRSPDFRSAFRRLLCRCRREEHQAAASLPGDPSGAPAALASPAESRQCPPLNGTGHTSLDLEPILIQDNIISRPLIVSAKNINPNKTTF

As to `Cc1cc(CCN[C@@H](C)[C@H](O)c2ccc(O)cc2)ccc1OCC(=O)O` [Compound 33], the EC50 in series [1] came out at 13 µM; in series [2], 31 µM.
In the same order, the values of `C[C@H](NCCc1ccc(OCC(=O)O)c(C#N)c1)[C@H](O)c1ccc(O)cc1` [Compound 37, 2-[2-Cyano-4-[2-[[(1S,2R)-2-hydroxy-2-(4-hydroxyphenyl)-1-methylethyl]amino]ethyl]phenoxy]acetic acid] are 76 µM and 33 µM.
With `C[C@H](NCCc1ccc(OCC(=O)O)c(Br)c1)[C@H](O)c1ccc(O)cc1` [Compound 24], the EC50 in series [1] was 10 µM; in series [2], above 100 µM.
In series [2], `CCOC(=O)COc1ccc(CCN[C@@H](C)[C@H](O)c2ccc(O)cc2)cc1Cl.Cl` [Compound 48, Ethyl 2-[2-chloro-4-[2-[[(1S,2R)-2-hydroxy-2-(4-hydroxyphenyl)-1-methylethyl]amino]ethyl]phenoxy]acetate hydrochloride] registered an EC50 of 17 µM. Further, the “Death of animals (acute toxicity)” value in series [3] (listed as ethyl 2-[2-chloro-4-[2-[[(1S,2R)-2-hydroxy-2-(4-hydroxyphenyl)1-methylethyl]amin) is “No death of animals was observed”; in series [3] (listed as ethyl 2-[2-chloro-4-[2-[[(1S,2R)-2-hydroxy-2-(4-hydroxyphenyl)-1-methylethyl]ami), “no death was observed”.
Regarding `C[C@H](NCCc1ccc(OCC(=O)O)c([N+](=O)[O-])c1)[C@H](O)c1ccc(O)cc1` [Compound 38, 2-[4-[2-[[(1S,2R)-2-Hydroxy-2-(4-hydroxyphenyl)-1-methylethyl]amino]ethyl]-2-nitrophenoxy]acetic acid], the EC50 is 2.6 µM in series [1] and 58 µM in series [2].
`C[C@H](NCCc1ccc(OCC(=O)O)c(Cl)c1)[C@H](O)c1ccc(O)cc1` [Compound 25, 2-[2-Chloro-4-[2-[[(1S,2R)-2-hydroxy-2-(4-hydroxyphenyl)-1-methylethyl]amino]ethyl]phenoxy]acetic acid]: in series [2], the EC50 is 70 µM.
For `Cc1cc(OCC(=O)O)c(C)cc1CCN[C@@H](C)[C@H](O)c1ccc(O)cc1` [Compound 35, 2-[4-[2-[[(1S,2R)-2-Hydroxy-2-(4-hydroxyphenyl)-1-methylethyl]amino]ethyl]-2,5-dimethylphenoxy]acetic acid], the EC50 amounted to 1.8 µM in series [1] and 38 µM in series [2].
Consider `C[C@H](Cc1ccc(OCC(=O)O)cc1)NC[C@H](O)c1cccc(Cl)c1` [(R,R)-BRL-37344, reference compound], for which the results for the EC50 in series [1] (read-out: EC50 value (concentration required to produce 50% of the inhibition of uterine contraction)), in series [2] (read-out: EC50 value (concentration required to produce 50% increase of heart rate per minute)) and in series [4] were 0.009 µM, 0.27 µM and 0.0016 µM, respectively.
Take `C[C@H](NCCc1ccc(OCC(=O)O)c(OCc2ccccc2)c1)[C@H](O)c1ccc(O)cc1` [Compound 31, 2-[2-Benzyloxy-4-[2-[[(1S,2R)-2-hydroxy-2-(4-hydroxyphenyl)-1-methylethyl]amino]ethyl]phenoxy]acetic acid]: the EC50 in series [1] is 1.9 µM; in series [2] it was above 100 µM.
Take `C[C@H](NCCc1ccc(OCC(=O)O)c(N(C)C)c1)[C@H](O)c1ccc(O)cc1` [Compound 47, 2-[2-Dimethylamino-4-[2-[[(1S,2R)-2-hydroxy-2-(4-hydroxyphenyl)-1-methylethyl]amino]ethyl]phenoxy]acetic acid]: the EC50 was 17 µM in series [1] and above 100 µM in series [2].
On to `C[C@H](NCCc1ccc(OCC(=O)O)c(C(=O)N(C)C)c1)[C@H](O)c1ccc(O)cc1` [Compound 43, 2-[2-(Dimethylaminocarbonyl)-4-[2-[[(1S,2R)-2-hydroxy-2-(4-hydroxyphenyl)-1-methylethyl]amino]ethyl]phenoxy]acetic acid], for which the EC50 in series [1] was found to be 53 µM; in series [2], 58 µM.
For the molecule `C[C@H](NCCc1ccc(OCC(=O)O)c(F)c1)[C@H](O)c1ccc(O)cc1` [Compound 28, 2-[2-Fluoro-4-[2-[[(1S,2R)-2-hydroxy-2-(4-hydroxyphenyl)-1-methylethyl]amino]ethyl]phenoxy]acetic acid], the EC50 in series [1] came to 1.8 µM; in series [2] it was 30 µM.
On to `C[C@H](NCCc1cc(Cl)c(OCC(=O)O)cc1Cl)[C@H](O)c1ccc(O)cc1` [Compound 27, 2-[2,5-Dichloro-4-[2-[[(1S,2R)-2-hydroxy-2-(4-hydroxyphenyl)-1-methylethyl]amino]ethyl]phenoxy]acetic acid], for which the EC50 was found to be 0.49 µM in series [1] and 49 µM in series [2].
In the same order, the values of `C[C@H](NCCc1ccc(OCC(=O)O)c(O)c1)[C@H](O)c1ccc(O)cc1` [Compound 46, 2-[2-Hydroxy-4-[2-[[(1S,2R)-2-hydroxy-2-(4-hydroxyphenyl)-1-methylethyl]amino]ethyl]phenoxy]acetic acid] are 0.21 µM and 21 µM.
Regarding `CCOc1cc(CCN[C@@H](C)[C@H](O)c2ccc(O)cc2)ccc1OCC(=O)O` [Compound 30, 2-[2-Ethoxy-4-[2-[[(1S,2R)-2-hydroxy-2-(4-hydroxyphenyl)-1-methylethyl]amino]ethyl]phenoxy]acetic acid], the EC50 in series [1] was 25 µM; in series [2] it was above 100 µM.
Turning to `C[C@H](NCCc1ccc(OCC(=O)O)c(C(F)(F)F)c1)[C@H](O)c1ccc(O)cc1` [Compound 36, 2-[4-[2-[[(1S,2R)-2-Hydroxy-2-(4-hydroxyphenyl)-1-methylethyl]amino]ethyl]-2-(trifluoromethyl)phenoxy]acetic acid hydrochloride], the EC50 in series [1] was 20 µM; in series [2] it was above 100 µM.
Regarding `CCOC(=O)COc1ccc(CCN[C@@H](C)[C@H](O)c2ccc(O)cc2)cc1NC=O` [Compound 40, Ethyl 2-[2-Formylamino-4-[2-[[(1S,2R)-2-hydroxy-2-(4-hydroxyphenyl)-1-methylethyl]amino]ethyl]phenoxy]acetate], the EC50 in series [1] is 1 µM; in series [2], 3.5 µM.
On to `CCOC(=O)COc1cc(Cl)c(CCN[C@@H](C)[C@H](O)c2ccc(O)cc2)cc1Cl` [Compound 49, Ethyl 2-[2,5-dichloro-4-[2-[[(1S,2R)-2-hydroxy-2-(4-hydroxyphenyl)-1-methylethyl]amino]ethyl]phenoxy]acetate hydrochloride], for which the EC50 was found to be 0.061 µM in series [1] and 6.8 µM in series [2].
In the case of `COc1cc(CCN[C@@H](C)[C@H](O)c2ccc(O)cc2)ccc1OCC(=O)O` [Compound 29, 2-(4-[2-[[(1S,2R)-2-Hydroxy-2-(4-hydroxyphenyl)-1-methylethyl]amino]ethyl]-2-methoxyphenoxy]acetic acid], the EC50 in series [1] was 3.9 µM; in series [2] it was above 100 µM.
Turning to `C[C@H](NCCc1cc(Cl)c(OCC(=O)O)c(Cl)c1)[C@H](O)c1ccc(O)cc1` [Compound 26], the values for the EC50 in series [1] and in series [2] were 1.4 µM and above 100 µM, respectively.
